Measurements taken from article PMC3656124, “DNA Topoisomerase II Is Involved in Regulation of Cyst Wall Protein Genes and Differentiation in Giardia lamblia” (PLoS Neglected Tropical Diseases, 2013).

T1: Topo II (Giardia duodenalis, UniProt E2RU90)
T1 construct: gene GL50803_0016975
T1 sequence (E2RU90 1-1491): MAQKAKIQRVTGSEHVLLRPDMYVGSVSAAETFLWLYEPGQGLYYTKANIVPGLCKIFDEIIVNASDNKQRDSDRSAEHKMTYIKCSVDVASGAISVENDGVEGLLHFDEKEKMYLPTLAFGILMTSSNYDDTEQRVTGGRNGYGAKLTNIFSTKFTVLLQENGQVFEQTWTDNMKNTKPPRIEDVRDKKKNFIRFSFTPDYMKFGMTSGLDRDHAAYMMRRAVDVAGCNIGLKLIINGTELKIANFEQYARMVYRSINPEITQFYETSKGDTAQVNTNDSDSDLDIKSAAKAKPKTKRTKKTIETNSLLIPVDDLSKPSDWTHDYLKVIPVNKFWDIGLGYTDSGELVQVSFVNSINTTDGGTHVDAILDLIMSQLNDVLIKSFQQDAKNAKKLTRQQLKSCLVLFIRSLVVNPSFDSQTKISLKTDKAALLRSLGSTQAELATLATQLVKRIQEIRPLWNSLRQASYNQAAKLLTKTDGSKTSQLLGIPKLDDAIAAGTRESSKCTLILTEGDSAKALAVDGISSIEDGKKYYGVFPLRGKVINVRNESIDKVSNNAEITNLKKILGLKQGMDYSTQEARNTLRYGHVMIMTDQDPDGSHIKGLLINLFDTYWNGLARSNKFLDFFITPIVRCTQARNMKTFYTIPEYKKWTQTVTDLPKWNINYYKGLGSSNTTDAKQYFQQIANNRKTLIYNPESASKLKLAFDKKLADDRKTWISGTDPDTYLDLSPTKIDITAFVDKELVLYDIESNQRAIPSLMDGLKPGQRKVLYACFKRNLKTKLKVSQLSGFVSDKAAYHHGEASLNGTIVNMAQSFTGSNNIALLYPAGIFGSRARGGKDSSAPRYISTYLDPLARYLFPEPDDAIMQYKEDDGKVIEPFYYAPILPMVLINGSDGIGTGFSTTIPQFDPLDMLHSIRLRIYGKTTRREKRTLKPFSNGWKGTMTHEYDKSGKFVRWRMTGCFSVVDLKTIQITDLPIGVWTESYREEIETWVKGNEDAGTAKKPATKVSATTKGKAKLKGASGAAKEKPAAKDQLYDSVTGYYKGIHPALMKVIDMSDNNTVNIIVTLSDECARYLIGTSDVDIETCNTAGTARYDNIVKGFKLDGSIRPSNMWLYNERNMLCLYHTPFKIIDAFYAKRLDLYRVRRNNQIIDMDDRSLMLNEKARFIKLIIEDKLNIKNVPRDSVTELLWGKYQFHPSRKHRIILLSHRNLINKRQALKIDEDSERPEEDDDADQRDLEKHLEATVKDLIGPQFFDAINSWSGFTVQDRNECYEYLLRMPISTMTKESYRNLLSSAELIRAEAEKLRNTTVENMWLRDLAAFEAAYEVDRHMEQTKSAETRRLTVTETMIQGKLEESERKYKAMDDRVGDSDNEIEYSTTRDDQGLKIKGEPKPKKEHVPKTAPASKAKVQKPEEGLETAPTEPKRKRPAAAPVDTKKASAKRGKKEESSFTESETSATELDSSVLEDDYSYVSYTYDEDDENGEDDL

B1: Topo II (Giardia lamblia ATCC 50803) (protein)
chain: T1 sequence (E2RU90 1-1491)

Assays:
[1] = molecular target: T1, Topo II; experiment: pUC119 plasmid DNA cleavage assay, agarose gel; format: biochemical; conditions: 12 mM etoposide in Me2SO (Me2SO alone also raised cleavage); 5 mM Mg2+, pH 7.5, 37 °C; traps cleavage complex
[2] = substrate: Nc1ncnc2c1ncn2[C@@H]1O[C@H](COP(=O)(O)OP(=O)(O)OP(=O)(O)O)[C@@H](O)[C@H]1O; experiment: coupled pyruvate kinase/lactate dehydrogenase ATPase assay (NADH, A340), Lineweaver-Burk; format: biochemical, Giardia duodenalis; conditions: without DNA, 37 °C, 8 ng Topo II

Row | Molecule | increase of DNA cleavage activity [1] | Km [2]
1 | COc1cc([C@@H]2c3cc4c(cc3[C@@H](O[C@@H]3O[C@@H]5CO[C@@H](C)O[C@H]5[C@H](O)[C@H]3O)[C@H]3COC(=O)[C@H]23)OCO4)cc(OC)c1O [etoposide] | addition of etoposide slightly increased DNA cleavage activity of Topo II | 
2 | B1 |  | 210 µM
